Test results: US20240082296A1, “TREATMENT OF MUSCLE ATROPHY USING DEXTRAN SULFATE” (TX MEDIC AB, priority 2020, published 2024)
Marks after values point to notes of the source that are not given here.

Tested on: severe traumatic brain injury (sTBI) in rats
Experiment: HPLC of purine-pyrimidine / energy metabolites in rat brain after sTBI (Example 4)
Assay type: in vivo
Procedure: The effects of daily sub-cutaneous injections of dextran sulfate on glutamate excitotoxicity and mitochondrial function after severe traumatic brain injury (sTBI) in rats were evaluated by high-performance liquid chromatography (HPLC) analysis of frozen brain samples.
The experimental protocol used in this study was approved by the Ethical Committee of the Catholic University of Rome, according to international standards and guidelines for animal care. Male Wistar rats of 300-350 g body weight (b.w.) were fed with standard laboratory diet and water ad libitum in a controlled environment.
They were divided into three groups: • 1) n=6 animals subjected to sTBI, with drug administration after 30 minutes and sacrifice at 2 days post-TBI (Acute phase 1) • 2) n=6 animals subjected to severe-TBI, with drug administration after 30 minutes and sacrifice at 7 days post-TBI (Acute phase 2). • 3) n=6 animals subjected to severe-TBI, with drug administration after 3 days and sacrifice at 7 days post-TBI (Chronic phase).
As the anesthetic mixture, animals received 35 mg/kg b.w. ketamine and 0.25 mg/kg b.w. midazolam by i.p. injection. sTBI was induced by dropping a 450 g weight from 2 m height on to the rat head that had been protected by a metal disk previously fixed on the skull, according to the “weight drop” impact acceleration model (Marmarou et al., A new model of diffuse brain injury in rats. Part I: Pathophysiology and biomechanics. J Neurosurg. 1994; 80: 291-300). […] At the end of each period of treatment, rats were anesthetized again and then immediately sacrificed.
The drug treatment was a subcutaneous injection of 0.5 ml of dextran sulfate (Tikomed AB, Viken, Sweden, WO 2016/076780; 15 mg/kg) and administered according to the aforementioned schematic protocol.
An in vivo craniectomy was performed in all animals during anesthesia, after carefully removing the rat's skull, the brain was exposed and removed with a surgical spatula and quickly dropped in liquid nitrogen. After the wet weight (w.w.) determination, tissue preparation was affected as previously disclosed (Tavazzi et al., Cerebral oxidative stress and depression of energy metabolism correlate with severity of diffuse brain injury in rats. Neurosurgery. 2005; 56: 582-589; Vagnozzi et al., Temporal window of metabolic brain vulnerability to concussions: mitochondrial-related impairment-part I. Neurosurgery. 2007; 61: 379-388; Tavazzi et al., Temporal window of metabolic brain vulnerability to concussions: oxidative and nitrosative stresses-part II. Neurosurgery. 2007; 61: 390-395; Amorini et al., Severity of experimental traumatic brain injury modulates changes in concentrations of cerebral free amino acids. J Cell Mol Med. 2017; 21: 530-542.). Briefly, whole brain homogenization was performed with 7 ml of ice-cold, nitrogen-saturated, precipitating solution composed by CH3CN+10 mM KH2PO4, pH 7.40, (3:1; v:v), and using an Ultra-Turrax set at 24,000 rpm/min (Janke & Kunkel, Staufen, Germany). After centrifugation at 20,690×g, for 10 min at 4° C., the clear supernatants were saved, pellets were supplemented with 3 ml of the precipitating solution and homogenized again as described above. A second centrifugation was performed (20,690×g, for 10 min at 4° C.), pellets were saved, supernatants combined with those previously obtained, extracted by vigorous agitation with a double volume of HPLC-grade CHCl3 and centrifuged as above. The upper aqueous phases containing water-soluble low-molecular weight compounds were collected, subjected to chloroform washings for two more times (this procedure allowed the removal of all the organic solvent and of any lipid soluble compound from the buffered tissue extracts), adjusted in volumes with 10 mM KH2PO4, pH 7.40, to have ultimately aqueous 10% tissue homogenates and saved at −80° C. until assayed. […]

[1] = Acute phase 2 (15 mg/kg s.c. 30 min after sTBI, sacrifice 7 days post-TBI)
[2] = Chronic phase (15 mg/kg s.c. 3 days after sTBI, sacrifice 7 days post-TBI)
[3] = rat brain after sTBI, after administration

## dextran sulfate
[1]
  UDP-GalNac concentration: 19.90 ± 3.12^a,e nmol/g (w.w.)
  UDP-Glc concentration: 44.44 ± 7.59^j nmol/g (w.w.)
  UDP-GlcNac concentration: 130.65 ± 28.41^a nmol/g (w.w.)
  UMP concentration: 138.73 ± 32.01^b nmol/g (w.w.)
  UTP concentration: 146.71 ± 32.68^e nmol/g (w.w.)
  acetyl-CoA concentration: 36.86 ± 4.11^e nmol/g (w.w.)
  adenine concentration: 58.16 ± 6.36^a,f nmol/g (w.w.)
  ascorbic acid concentration: 3512.58 ± 224.62^a,e nmol/g (w.w.)
  creatinine concentration: 37.27 ± 5.82^a,e,j nmol/g (w.w.)
  cytidine concentration: 16.18 ± 4.21^e nmol/g (w.w.)
  cytosine concentration: 15.70 ± 4.10^f nmol/g (w.w.)
  guanine concentration: 4.73 ± 1.07 nmol/g (w.w.)
  guanosine concentration: 17.90 ± 3.24^j nmol/g (w.w.)
  hypoxanthine concentration: 12.90 ± 2.58^a,j nmol/g (w.w.)
  inosine concentration: 85.52 ± 20.36^e nmol/g (w.w.)
  malonyl-CoA concentration: 11.29 ± 2.27^b nmol/g (w.w.)
  orotic acid concentration: 13.34 ± 3.65^a nmol/g (w.w.)
  thymidine concentration: 0.49 ± 0.20^f nmol/g (w.w.)
  uracil concentration: 19.40 ± 7.52^a,e nmol/g (w.w.)
  uric acid concentration: 19.17 ± 2.15^a,h,i nmol/g (w.w.)
  uridine concentration: 63.02 ± 9.66^b,e nmol/g (w.w.)
  xanthine concentration: 10.41 ± 2.11^f nmol/g (w.w.)
  β-pseudouridine concentration: 13.26 ± 3.16^a,e,j nmol/g (w.w.)
[2]
  ADO concentration: 89.97 ± 12.98^a nmol/g (w.w.)
  ADP concentration: 315.53 ± 46.53^a nmol/g (w.w.)
  ADP-ribose concentration: 173.94 ± 8.45^a nmol/g (w.w.)
  AMP concentration: 90.01 ± 21.24^a nmol/g (w.w.)
  ATP concentration: 1381.03 ± 212.64^a nmol/g (w.w.)
  CDP choline concentration: 8.37 ± 2.19 nmol/g (w.w.)
  CDP concentration: 23.55 ± 6.45^a nmol/g (w.w.)
  CMP concentration: 20.51 ± 3.73^a,f nmol/g (w.w.)
  CTP concentration: 25.23 ± 2.93^a,f nmol/g (w.w.)
  CoA-SH concentration: 27.58 ± 6.24^f nmol/g (w.w.)
  GDP concentration: 173.05 ± 28.68^a,e nmol/g (w.w.)
  GDP glucose concentration: 43.85 ± 5.06^b nmol/g (w.w.)
  GMP concentration: 148.56 ± 31.21^a nmol/g (w.w.)
  GSH concentration: 2608.67 ± 358.07^a,e nmol/g (w.w.)
  GSSG concentration: 231.08 ± 44.34^b,f nmol/g (w.w.)
  GTP concentration: 290.92 ± 34.68^a,f nmol/g (w.w.)
  IMP concentration: 99.29 ± 13.82^a nmol/g (w.w.)
  MDA concentration: 11.62 ± 3.90^a,e nmol/g (w.w.)
  NAA concentration: 6375.36 ± 974.12^a,e nmol/g (w.w.)
  NADH concentration: 11.78 ± 3.32^e nmol/g (w.w.)
  NADPH concentration: 7.34 ± 2.65^f nmol/g (w.w.)
  NADP^+ concentration: 16.44 ± 2.66^a,f nmol/g (w.w.)
  NAD^+ concentration: 301.13 ± 29.90^a nmol/g (w.w.)
  NO2 concentration: 217.67 ± 55.04^a nmol/g (w.w.)
  NO3 concentration: 241.27 ± 18.84^e nmol/g (w.w.)
  UDP concentration: 57.40 ± 5.88^a,f nmol/g (w.w.)
  UDP-Gal concentration: 122.29 ± 12.15 nmol/g (w.w.)
  UDP-GalNac concentration: 21.84 ± 2.80^a,e nmol/g (w.w.)
  UDP-Glc concentration: 35.79 ± 3.45^b nmol/g (w.w.)
  UDP-GlcNac concentration: 129.42 ± 15.88^b nmol/g (w.w.)
  UMP concentration: 103.11 ± 29.79 nmol/g (w.w.)
  UTP concentration: 136.80 ± 33.25^f nmol/g (w.w.)
  acetyl-CoA concentration: 35.68 ± 6.55^e nmol/g (w.w.)
  adenine concentration: 52.94 ± 8.59^a,f nmol/g (w.w.)
  ascorbic acid concentration: 3375.03 ± 856.41^a,e nmol/g (w.w.)
  creatinine concentration: 51.25 ± 10.17^a,f nmol/g (w.w.)
  cytidine concentration: 14.71 ± 2.83^e nmol/g (w.w.)
  cytosine concentration: 15.58 ± 2.50^b,f nmol/g (w.w.)
  guanine concentration: 5.31 ± 1.04^b nmol/g (w.w.)
  guanosine concentration: 28.87 ± 7.60^a,f nmol/g (w.w.)
  hypoxanthine concentration: 17.97 ± 4.49^a nmol/g (w.w.)
  inosine concentration: 105.81 ± 25.57^f nmol/g (w.w.)
  malonyl-CoA concentration: 10.00 ± 1.95^b nmol/g (w.w.)
  orotic acid concentration: 12.05 ± 1.50^a nmol/g (w.w.)
  thymidine concentration: 0.71 ± 0.11 nmol/g (w.w.)
  uracil concentration: 16.57 ± 2.99^a,f nmol/g (w.w.)
  uric acid concentration: 27.77 ± 3.60^a nmol/g (w.w.)
  uridine concentration: 63.28 ± 3.37^f nmol/g (w.w.)
  xanthine concentration: 9.35 ± 0.83^f nmol/g (w.w.)
  β-pseudouridine concentration: 18.62 ± 2.80^a nmol/g (w.w.)
Both the acute and chronic phases of sTBI
  cerebral nitrate concentrations: significantly decreased
[3]
  cerebral GSH level: significant improvement
  cerebral MDA levels: significant reduction
  cerebral NAA and its substrates: significant improvements
  cerebral ascorbic acid level: significant improvement
